# Laboratory results: paper PMC5750218, “Protein-inspired antibiotics active against vancomycin- and daptomycin-resistant bacteria” (Nature Communications, 2018)
# Several values for one entry are separate records, joined by “and”; a condition that tells them apart may be missing. Identical values can stand only once.
# Legend:
# Experiment in all cases: microbe, parasite or virus in culture
# [1] = system: Bacillus subtilis ATCC 6633; type: cell-based; conditions: for Ac2Kaa concentration required to neutralise MIC activity / MIC: ATCC 6633, 48 h; for Molar excess of Ac2Kaa ligand required to antagonise antibacterial activity: [ligand]/[antibiotic], B. subtilis ATCC 6633, 24 h
# Description: All compounds were dissolved in H2O. Bacillus subtilis ATCC® 6633™ NRS-231 was cultured in MHB at 37 °C for 48 h. A sample of each culture was then diluted 40-fold in fresh MHB and incubated at 37 °C for 18 h. Compounds were added to each row of 96-well NBS plates (NBS, Corning 3641), in duplicate. The tripeptide N,N΄-diacetyl-L-Lys-D-Ala-D-Ala was serially diluted twofold across the compound-containing wells from 6400 to 3 µg mL^−1. To this the resultant mid-log phase cultures were diluted to the final concentration of 5 × 10^5 CFU mL^−1, then added to wells of the compound-containing plates. All the plates were covered and incubated at 37 °C for 24 h.
# [2] = system: Vancomycin-resistant (VanA) Enterococcus faecium ATCC 51559
# Description: (§1) Antimicrobial activity of compounds was tested against a number of bacterial strains by broth microdilution (BMD) assay with MIC determination, including S. aureus (MSSA ATCC® 29213™, MRSA ATCC® 43300™, VISA NARSA NRS1, VISA NARSA NRS4), Streptococcus pneumoniae (MDR ATCC® 700677™) and Enterococcus faecium (MDR VanA ATCC® 51559™). ATCC strains were sourced from the American Type Culture Collection and NRS strains from NARSA (Network on Antimicrobial Resistance in S. aureus) via BEI Resources (www.beiresources.org). All compounds were prepared to 160 µg mL^−1 solution in water from a stock solution of 1 mM concentration.
# (§2) The compounds, along with standard antibiotics were serially diluted twofold across the wells of 96-well non-binding surface (NBS) polystyrene plates (Corning 3641). […] Standards ranged from 64 to 0.03 µg mL^−1 and compounds from 8 to 0.003 µg mL^−1 with final assay volumes of 100 µL per well. Gram-positive bacteria were cultured in Mueller Hinton broth (MHB) (Bactolaboratories, Cat. no. 211443) at 37 °C overnight. A sample of each culture was then diluted 40-fold in fresh MHB and incubated at 37 °C for 2–3 h. […] All the plates were covered and incubated at 37 °C for 24 h. MICs were the lowest concentration showing no visible growth.
# [3] = system: Vancomycin-intermediate S. aureus NRS1
# Description: as §1, §2
# [4] = system: Multi-drug-resistant S. pneumoniae ATCC 700677
# Description: as §1, §2
# [5] = system: Methicillin-resistant S. aureus ATCC 43300
# Description: as §1
# as §2, with “The compounds, along with standard antibiotics were serially diluted twofold across the wells of 96-well non-binding surface (NBS) polystyrene plates (Corning 3641).” left out
Compound,MIC VRE ([2]; ATCC 51559),MIC VISA ([3]; Vancomycin-intermediate NRS1),MIC MDR S.P. ([4]; ATCC 700677),"MIC MRSA ([5]; ATCC 43300, 24 h)",also measured
"CN[C@H](CC(C)C)C(=O)N[C@H]1C(=O)N[C@@H](CC(N)=O)C(=O)N[C@H]2C(=O)N[C@H]3C(=O)N[C@H](C(=O)N[C@H](C(=O)NCCCC[C@H](NC(=O)[C@H](CCCCN)NC(=O)[C@H](CCCCN)NC(=O)c4ccc(Oc5ccccc5)cc4)C(=O)O)c4cc(O)cc(O)c4-c4cc3ccc4O)[C@H](O)c3ccc(c(Cl)c3)Oc3cc2cc(c3O[C@@H]2O[C@H](CO)[C@@H](O)[C@H](O)[C@H]2O[C@H]2C[C@](C)(N)[C@H](O)[C@H](C)O2)Oc2ccc(cc2Cl)[C@H]1O [Compound 41, POB-KK-K-(Vancomycin)-OH]",,,,,Ac2Kaa concentration required to neutralise MIC activity [1]: 1.56 mg/L; MIC [1]: 0.06 mg/L; Molar excess of Ac2Kaa ligand required to antagonise antibacterial activity [1]: 104
"CN[C@H](CC(C)C)C(=O)N[C@H]1C(=O)N[C@@H](CC(N)=O)C(=O)N[C@H]2C(=O)N[C@H]3C(=O)N[C@H](C(=O)N[C@H](C(=O)NCCCC[C@H](NC(=O)[C@H](CCCCN)NC(=O)[C@H](CCCCN)NC(=O)[C@H](CCCCN)NC(=O)[C@H](CCCCNC(=O)c4ccc(Oc5ccccc5)cc4)NC(=O)c4ccc(Oc5ccccc5)cc4)C(=O)O)c4cc(O)cc(O)c4-c4cc3ccc4O)[C@H](O)c3ccc(c(Cl)c3)Oc3cc2cc(c3O[C@@H]2O[C@H](CO)[C@@H](O)[C@H](O)[C@H]2O[C@H]2C[C@](C)(N)[C@H](O)[C@H](C)O2)Oc2ccc(cc2Cl)[C@H]1O [Compound 42, POB2K-KKK-K-(Vancomycin)-OH]",,,,,"Ac2Kaa concentration required to neutralise MIC activity [1]: 1600 mg/L; MIC [1]: ≤ 0.004 mg/L; Molar excess of Ac2Kaa ligand required to antagonise antibacterial activity [1]: 131,225"
"CNC(=O)[C@H](CCCCNC(=O)[C@H]1NC(=O)[C@H]2NC(=O)[C@H](NC(=O)[C@@H]3NC(=O)[C@H](CC(N)=O)NC(=O)[C@H](NC(=O)[C@@H](CC(C)C)NC)[C@H](O)c4ccc(c(Cl)c4)Oc4cc3cc(c4O[C@@H]3O[C@H](CO)[C@@H](O)[C@H](O)[C@H]3O[C@H]3C[C@](C)(N)[C@H](O)[C@H](C)O3)Oc3ccc(cc3Cl)[C@H]2O)c2ccc(O)c(c2)-c2c(O)cc(O)cc21)NC(=O)[C@H](CCCCN)NC(=O)[C@H](CCN)NC(=O)[C@H](CCCCNC(=O)c1ccc(Oc2ccccc2)cc1)NC(=O)c1ccc(Oc2ccccc2)cc1 [Compound 31, POB2K-Dab-K-K(Vancomycin)-NHMe]",0.375 mg/L,0.0925 mg/L,<0.003 mg/L,<0.003 mg/L,
"CNC(=O)[C@H](CCCCNC(=O)[C@H]1NC(=O)[C@H]2NC(=O)[C@H](NC(=O)[C@@H]3NC(=O)[C@H](CC(N)=O)NC(=O)[C@H](NC(=O)[C@@H](CC(C)C)NC)[C@H](O)c4ccc(c(Cl)c4)Oc4cc3cc(c4O[C@@H]3O[C@H](CO)[C@@H](O)[C@H](O)[C@H]3O[C@H]3C[C@](C)(N)[C@H](O)[C@H](C)O3)Oc3ccc(cc3Cl)[C@H]2O)c2ccc(O)c(c2)-c2c(O)cc(O)cc21)NC(=O)[C@H](CCCCN)NC(=O)[C@H](CCCN)NC(=O)[C@H](CCCCNC(=O)c1ccc(Oc2ccccc2)cc1)NC(=O)c1ccc(Oc2ccccc2)cc1 [Compound 33, POB2K-Orn-K-K(Vancomycin)-NHMe]",1.5 mg/L,0.125 mg/L,0.007 mg/L,<0.003 mg/L,
POB2K-Dap-K-K(Vancomycin)-NHMe [Compound 28],,,,,"MIC VRE ([2]; E. faecium MDR VanA ATCC 51559, substance alone): 0.75 mg/L; MIC VISA ([3]; S. aureus NRS1): 0.125 mg/L and 0.155 mg/L; MIC MDR S.P. ([4]; S. pneumoniae ATCC 700677): 0.015 mg/L and 0.011 mg/L; MIC MRSA ([5]; S. aureus ATCC 43300, NBS plates, MHB, 24 h, substance alone): <0.003 mg/L and 0.0045 mg/L"
"CNC(=O)[C@H](CCCCNC(=O)[C@H]1NC(=O)[C@H]2NC(=O)[C@H](NC(=O)[C@@H]3NC(=O)[C@H](CC(N)=O)NC(=O)[C@H](NC(=O)[C@@H](CC(C)C)NC)[C@H](O)c4ccc(c(Cl)c4)Oc4cc3cc(c4O[C@@H]3O[C@H](CO)[C@@H](O)[C@H](O)[C@H]3O[C@H]3C[C@](C)(N)[C@H](O)[C@H](C)O3)Oc3ccc(cc3Cl)[C@H]2O)c2ccc(O)c(c2)-c2c(O)cc(O)cc21)NC(=O)[C@H](CCN)NC(=O)[C@H](CCCCN)NC(=O)[C@H](CCCCNC(=O)c1ccc(Oc2ccccc2)cc1)NC(=O)c1ccc(Oc2ccccc2)cc1 [Compound 30, POB2K-K-Dab-K(Vancomycin)-NHMe]",0.75 mg/L,0.0925 mg/L,<0.003 mg/L,<0.003 mg/L,
"CNC(=O)[C@H](CCCCNC(=O)[C@H]1NC(=O)[C@H]2NC(=O)[C@H](NC(=O)[C@@H]3NC(=O)[C@H](CC(N)=O)NC(=O)[C@H](NC(=O)[C@@H](CC(C)C)NC)[C@H](O)c4ccc(c(Cl)c4)Oc4cc3cc(c4O[C@@H]3O[C@H](CO)[C@@H](O)[C@H](O)[C@H]3O[C@H]3C[C@](C)(N)[C@H](O)[C@H](C)O3)Oc3ccc(cc3Cl)[C@H]2O)c2ccc(O)c(c2)-c2c(O)cc(O)cc21)NC(=O)[C@H](CCCN)NC(=O)[C@H](CCCN)NC(=O)[C@H](CCCCNC(=O)c1ccc(Oc2ccccc2)cc1)NC(=O)c1ccc(Oc2ccccc2)cc1 [Compound 34, POB2K-Orn-Orn-K(Vancomycin)-NHMe]",0.5 mg/L,0.0185 mg/L,<0.003 mg/L,<0.003 mg/L,
"CNC(=O)[C@H](CCCCNC(=O)[C@H]1NC(=O)[C@H]2NC(=O)[C@H](NC(=O)[C@@H]3NC(=O)[C@H](CC(N)=O)NC(=O)[C@H](NC(=O)[C@@H](CC(C)C)NC)[C@H](O)c4ccc(c(Cl)c4)Oc4cc3cc(c4O[C@@H]3O[C@H](CO)[C@@H](O)[C@H](O)[C@H]3O[C@H]3C[C@](C)(N)[C@H](O)[C@H](C)O3)Oc3ccc(cc3Cl)[C@H]2O)c2ccc(O)c(c2)-c2c(O)cc(O)cc21)NC(=O)[C@H](CCCN)NC(=O)[C@H](CCCCN)NC(=O)[C@H](CCCCNC(=O)c1ccc(Oc2ccccc2)cc1)NC(=O)c1ccc(Oc2ccccc2)cc1 [Compound 32, POB2K-K-Orn-K(Vancomycin)-NHMe]",1 mg/L,0.0375 mg/L,<0.003 mg/L,<0.003 mg/L,
CNC(=O)[C@H](CCCCNC(=O)[C@H]1NC(=O)[C@H]2NC(=O)[C@H](NC(=O)[C@@H]3NC(=O)[C@H](CC(N)=O)NC(=O)[C@H](NC(=O)[C@@H](CC(C)C)NC)[C@H](O)c4ccc(c(Cl)c4)Oc4cc3cc(c4O[C@@H]3O[C@H](CO)[C@@H](O)[C@H](O)[C@H]3O[C@H]3C[C@](C)(N)[C@H](O)[C@H](C)O3)Oc3ccc(cc3Cl)[C@H]2O)c2ccc(O)c(c2)-c2c(O)cc(O)cc21)NC(=O)[C@H](CCCCN)NC(=O)[C@@H](CCCCN)NC(=O)[C@H](CCCCNC(=O)c1ccc(Oc2ccccc2)cc1)NC(=O)c1ccc(Oc2ccccc2)cc1 [Compound 26],1.5 mg/L,0.19 mg/L,<0.003 mg/L,<0.003 mg/L,
"CNC(=O)[C@H](CCCNC(=O)[C@H]1NC(=O)[C@H]2NC(=O)[C@H](NC(=O)[C@@H]3NC(=O)[C@H](CC(N)=O)NC(=O)[C@H](NC(=O)[C@@H](CC(C)C)NC)[C@H](O)c4ccc(c(Cl)c4)Oc4cc3cc(c4O[C@@H]3O[C@H](CO)[C@@H](O)[C@H](O)[C@H]3O[C@H]3C[C@](C)(N)[C@H](O)[C@H](C)O3)Oc3ccc(cc3Cl)[C@H]2O)c2ccc(O)c(c2)-c2c(O)cc(O)cc21)NC(=O)[C@H](CCCCN)NC(=O)[C@H](CCCCN)NC(=O)[C@H](CCCCNC(=O)c1ccc(Oc2ccccc2)cc1)NC(=O)c1ccc(Oc2ccccc2)cc1 [Compound 35, POB2K-KK-Orn(Vancomycin)-NHMe]",1.25 mg/L,0.25 mg/L,0.005 mg/L,<0.003 mg/L,
